pEC50: −log10 of the molar value.
Biological target: T1, human GLP-1R (Homo sapiens, UniProt P43220)
T1 construct: expressed in transfected cells; host or cells: PEAK RAPID-derived Gα15-trans48 LD stably expressing cells (PRG48), transiently transfected with Lipofectamine 2000
Assay: GLP-1 receptor in vitro calcium assay (intracellular free calcium concentration change induced via GLP-1 receptor)
Format: cell-based
Conditions: for pEC50: PRG48 cells transfected with human GLP-1R, compound added with 250 pM GLP-1, Ca2+ response ΔF/F, read-out: Ca EC50 value; for GLP-1 receptor action enhancing activity (vs BETP): intensity compared to BETP, activity of BETP as 1
Experimental: The supernatant was removed by centrifugation (1,200 rpm, 3 min), and the cells were suspended at 4×10^6 cells/mL in 5% FBS DMEM/Ham's F-12. 1.0 mL thereof was seeded in a 15 cm dish and cultured (37° C., 5% CO2) overnight. The next day, the medium of the cultured PRG48 cells was replaced with 5% FBS DMEM/Ham's F-12 medium (30 mL), human GLP-1R gene mixture solution (GLP-1R/pc.DNA3.1(+) 60 μg) prepared using 6.0 mL of Opti-MEM (invitrogen) and 120 μL of Lipofectamin 2000 (invitrogen) was slowly added to the cells, and cultured (37° C., 5% CO2) for 6 hr to introduce the gene. […] The cells were counted, suspended at 0.5×10^6 cells/mL in 5% FBS DMEM/Ham's F-12 medium, and seeded in each well of D-Lysine coat 96 well plate (BD Bioscience) at 7.0×10^4 cells. After static adhesion at room temperature for 1 hr, the cells were cultured overnight (37° C., 5% CO2). The medium in the Cultured 96 well was entirely discarded, 150 μL of intracellular calcium measurement staining solution Calcium assay kit Express (Molecular Device) diluted 80-fold with Assay buffer (20 mM HEPES, 146 mM NaCl, 1 mM MgSO4, 1.39 mM glucose, 1 mM CaCl2, 2.5 mM Probenecid, 0.05% Casein Enzymatic Hydrolysate) was added, and the mixture was stood at 37° C. for 30 min, and then at room temperature for 45 min to perform staining. After staining, 250 pM GLP-1 and the compound were added and Ca^2+ response was observed by using FDSSμCELL (Hamamatsu Photonics K.K.). Each evaluation compound was dissolved in DMSO, further diluted with Assay buffer and used.
For evaluation, the fluorescence values (Ex480:Em540) before and after addition were measured, and changes in the intracellular free calcium concentration produced via GLP-1R receptor by the addition were quantitatively examined. For the measurement and analysis of the fluorescence values, a soft (FDSS7000EX) attached to the FDSSμCELL was used, and ΔF/F value ((maximum fluorescence value after stimulation−minimum fluorescence value after stimulation)/fluorescence value before stimulation) was calculated. Using the obtained ΔF/F values, EC50 value was calculated by Prism5.

T1 sequence (P43220 24-463): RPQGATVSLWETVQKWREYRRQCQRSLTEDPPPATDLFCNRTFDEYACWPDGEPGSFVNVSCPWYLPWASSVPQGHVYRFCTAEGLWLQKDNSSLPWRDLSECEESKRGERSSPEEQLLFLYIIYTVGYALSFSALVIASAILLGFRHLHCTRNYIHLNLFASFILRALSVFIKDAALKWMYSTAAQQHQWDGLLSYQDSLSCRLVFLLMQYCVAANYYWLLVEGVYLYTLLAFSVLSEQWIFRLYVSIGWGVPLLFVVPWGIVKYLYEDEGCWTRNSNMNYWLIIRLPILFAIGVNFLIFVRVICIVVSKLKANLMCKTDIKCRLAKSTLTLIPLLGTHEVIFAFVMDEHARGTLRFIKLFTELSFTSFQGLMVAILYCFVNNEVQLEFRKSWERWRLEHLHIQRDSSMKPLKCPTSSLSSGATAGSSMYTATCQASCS

| SMILES | pEC50 | GLP-1 receptor action enhancing activity (vs BETP) |
| --- | --- | --- |
| CCCCCCNC(=O)[C@@H](CCCC)NC(=O)Nc1ccc(NS(=O)(=O)c2ccc(C)cc2)cc1 [Compound 16] | 6.28 | 49 |
| CC(C)CCCC(C)NC(=O)[C@@H](CC1CCCCC1)NC(=O)Nc1ccc(NS(=O)(=O)c2ccc(N3CCOCC3)nc2)cc1 (stereo partly drawn) [Compound 104, (2R)-3-cyclohexyl-N-(1,5-dimethylhexyl)-2-({4-[(6-morpholino-3-pyridyl)sulfonylamino]phenyl}carbamoylamino)propanamide] | 6.32 | 53 |
| Cc1cc(C)c(S(=O)(=O)Nc2ccc(NC(=O)N[C@@H](Cc3ccccc3)C(=O)OC(C)(C)C)cc2)c(C)c1 [Compound 80] | 6.42 | 67 |
| Cc1cccc(S(=O)(=O)Nc2ccc(NC(=O)N[C@@H](Cc3ccccc3)C(=O)OC(C)(C)C)cc2)c1 [Compound 77] | 5.80 | 16 |
| Cc1ccc(S(=O)(=O)Nc2ccc(NC(=O)N[C@H](CC(C)C)C(=O)NCCC3CCCCC3)cc2)cc1 [Compound 48] | 6.55 | 92 |
| Cc1ccc(S(=O)(=O)Nc2ccc(NC(=O)N[C@H](Cc3ccc(Cl)cc3)C(=O)NC3CCCCCC3)cc2)cc1 [Compound 42] | 7.04 |  |
| CC(C)CCCC(C)NC(=O)[C@@H](Cc1cccnc1)NC(=O)Nc1ccc(NS(=O)(=O)c2ccc(C(C)(C)C)cc2)cc1 (some centres unmarked) [Compound 102] | 6.89 | 193 |
| Cc1ccc(S(=O)(=O)Nc2ccc(NC(=O)N[C@H](CC(=O)OC(C)(C)C)Cc3ccccc3)cc2)cc1 [Compound 76] | 5.80 | 16 |
| Cc1ccc(S(=O)(=O)Nc2ccc(NC(=O)N[C@H](Cc3c[nH]c4ccccc34)C(=O)NCCC3CCCCC3)cc2)cc1 [Compound 47] | 6.92 | 208 |
| Cc1ccc(S(=O)(=O)Nc2ccc(NC(=O)N[C@H](Cc3ccccc3)C(=O)NCCC3CCCCC3)cc2)cc1 [Compound 22] | 6.66 | 116 |
| Cc1ccc(S(=O)(=O)Nc2ccc(NC(=O)N[C@@H](Cc3ccc(OC(C)(C)C)cc3)C(=O)OC(C)(C)C)cc2)cc1 [Compound 66] | 6.13 | 34 |
| Cc1ccc(S(=O)(=O)Nc2ccc(NC(=O)N[C@H](Cc3ccccc3)C(=O)NC3CCCCCCC3)cc2)cc1 [Compound 52] | 6.77 | 144 |
| CCC(CC)CNC(=O)[C@@H](CC(C)C)NC(=O)Nc1ccc(NS(=O)(=O)c2ccc(C)cc2)cc1 [Compound 30] | 5.92 | 21 |
| CCCCC(CC)CNC(=O)[C@@H](CC(C)C)NC(=O)Nc1ccc(NS(=O)(=O)c2ccc(C)cc2)cc1 (some centres unmarked) [Compound 37] | 6.74 | 140 |
| Cc1ccc(S(=O)(=O)Nc2ccc(NC(=O)N[C@H](CC3CCCCC3)C(=O)NC3CCCCCC3)cc2)cc1 [Compound 41] | 7.12 | 333 |
| Cc1ccc(S(=O)(=O)Nc2ccc(NC(=O)N[C@H](Cc3ccccc3)C(=O)NCc3cccs3)cc2)cc1 [Compound 12] | 6.27 | 47 |
| Cc1ccc(S(=O)(=O)Nc2ccc(NC(=O)N[C@H](Cc3ccccc3)C(=O)NCC3CCCCC3)cc2)cc1 [Compound 8] | 6.30 | 50 |
| CC(C)(C)OC(=O)[C@H](Cc1ccccc1)NC(=O)Nc1ccc(NS(=O)(=O)c2ccc(C(C)(C)C)cc2)cc1 [Compound 73] | 6.51 | 83 |
| Cc1ccc(S(=O)(=O)Nc2ccc(NC(=O)N[C@@H](Cc3ccccc3)C(=O)OC(C)(C)C)cc2)cc1 [Compound 63] | 5.72 | 13 |
| CCCc1ccc(S(=O)(=O)Nc2ccc(NC(=O)N[C@@H](Cc3ccccc3)C(=O)OC(C)(C)C)cc2)cc1 [Compound 71] | 6.40 | 64 |
| CCCCCCNC(=O)[C@@H](Cc1ccc(F)cc1)NC(=O)Nc1ccc(NS(=O)(=O)c2ccc(C)cc2)cc1 [Compound 17] | 6.28 | 48 |
| Cc1ccc(S(=O)(=O)Nc2ccc(NC(=O)N[C@H](Cc3ccccc3)C(=O)OC(C)(C)C)cc2F)cc1 [Compound 87, tert-butyl (2R)-2-{[3-fluoro-4-(p-tolylsulfonylamino)phenyl]carbamoylamino}-3-phenyl-propanoate] | 5.96 | 23 |
| CC(C)CCCC(C)NC(=O)[C@@H](Cc1ccncc1)NC(=O)Nc1ccc(NS(=O)(=O)c2ccc(C(C)(C)C)cc2)cc1 (some centres unmarked) [Compound 106] | 6.41 | 64 |
| CSCCCN(c1ccc(NC(=O)N[C@H](CC2CCCCC2)C(=O)NC(C)CCCC(C)C)cc1)S(=O)(=O)c1ccc(C(C)(C)C)cc1 (stereo partly drawn) [Compound 97, (2R)-2-({4-[(4-tert-butylphenyl)sulfonyl-(3-methylsulfanylpropyl)amino]phenyl}carbamoylamino)-3-cyclohexyl-N-(1,5-dimethylhexyl)propanamide] | 7.20 | 399 |

The remaining compounds from weak to strong by pEC50, led by results:

| pEC50 | GLP-1 receptor action enhancing activity (vs BETP) | SMILES |
| --- | --- | --- |
| 7.14 | 350 | CCCCC(CC)CNC(=O)[C@@H](Cc1c[nH]c2ccccc12)NC(=O)Nc1ccc(NS(=O)(=O)c2ccc(C(C)(C)C)cc2)cc1F (stereo partly drawn) [Compound 98, (2R)-2-[[4-[(4-tert-butylphenyl)sulfonylamino]-2-fluoro-phenyl]carbamoylamino]-N-(2-ethylhexyl)-3-(1H-indol-3-yl)propanamide] |
| 7.29 | 490 | CCCCCCCCNC(=O)[C@@H](Cc1ccccc1)NC(=O)Nc1ccc(NS(=O)(=O)c2ccc(C)cc2)cc1 [Compound 5] |
| 7.30 | 505 | Cc1ccc(S(=O)(=O)Nc2ccc(NC(=O)N[C@H](Cc3ccccc3)C(=O)NCC#N)cc2)cc1 [Compound 7] |
| 7.55 | 898 | CCCCCCNc1ccc(S(=O)(=O)Nc2cccc(NC(=O)N[C@H](CC3CCCCC3)C(=O)NCCCSC)c2)cn1 [Compound 113] |
| 7.62 | 1068 | CCCOc1ccc(-c2noc([C@H](Cc3ccccc3)NC(=O)Nc3ccc(NS(=O)(=O)c4ccc(C)cc4)cc3)n2)cc1 [Compound 69] |
| 7.64 |  | CCCCC(CC)CNC(=O)[C@@H](Cc1ccc(Cl)cc1)NC(=O)Nc1ccc(NS(=O)(=O)c2ccc(C)cc2)cc1 (some centres unmarked) [Compound 39] |
| 7.70 | 1272 | CCCCC(CC)CNC(=O)[C@@H](CC1CCCCC1)NC(=O)N(CC(=O)O)c1ccc(NS(=O)(=O)c2ccc(C(C)(C)C)cc2)cc1 (some centres unmarked) [Compound 101] |
| 7.74 | 1425 | CCCCC(CC)CNC(=O)[C@@H](Cc1ccccc1)NC(=O)Nc1ccc(NS(=O)(=O)c2ccc(C(C)(C)C)cc2)cc1 (some centres unmarked) [Compound 36] |
| 7.80 |  | Cc1ccc(S(=O)(=O)Nc2ccc(NC(=O)N[C@H](Cc3ccc(Cl)cc3)C(=O)NCCC3CCCCC3)cc2)cc1 [Compound 46] |
| 7.96 | 2206 | CSCCCN(c1ccc(NC(=O)N[C@H](Cc2c[nH]c3ccccc23)C(=O)NC(C)CCCC(C)C)cc1)S(=O)(=O)c1ccc(C(C)(C)C)cc1 (some centres unmarked) [Compound 112] |
| 7.96 | 2311 | CCCCCCNc1ccc(S(=O)(=O)Nc2cccc(NC(=O)N[C@H](CC3CCCCC3)C(=O)NC(C)CCCC(C)C)c2)cn1 (some centres unmarked) [Compound 109] |
| 8.05 | 2786 | CCCCC(CC)CNC(=O)[C@H](CC(C)C)NC(=O)Nc1ccc(NS(=O)(=O)c2ccc(C(C)(C)C)cc2)cc1 (some centres unmarked) [Compound 51] |
| 8.24 |  | CCCCCCCCNC(=O)[C@H](Cc1ccc(Cl)cc1)NC(=O)Nc1ccc(NS(=O)(=O)c2ccc(C(C)(C)C)cc2)cc1 [Compound 59] |
| 8.36 | 5731 | CCCCCCNc1ccc(S(=O)(=O)Nc2cccc(NC(=O)N[C@H](Cc3c[nH]c4ccccc34)C(=O)NC(C)CCCC(C)C)c2)cn1 (some centres unmarked) [Compound 110] |
| 8.47 | 7462 | CCCCCCCCNC(=O)[C@H](CC1CCCCC1)NC(=O)Nc1ccc(NS(=O)(=O)c2ccc(C(C)(C)C)cc2)cc1 [Compound 57] |

From patent US20190022039A1, “COMPOUND HAVING ENHANCING ACTIVITY FOR GLUCAGON-LIKE PEPTIDE-1 RECEPTOR ACTIONS” (AJINOMOTO CO., INC., priority 2016, published 2019)
